Results on 27 compounds are retold here after US8076356B2, “Triazolopyridinylsulfanyl derivatives as P38 map kinase inhibitors” (Pfizer Inc., priority 2004, dated 2011).

SMILES strings stand for the structures.

One experiment has as its system TNFα release from human peripheral blood mononuclear cells. In words: TNFα screen. Type of experiment: cell-based. As to conditions: LPS-stimulated human peripheral blood mononuclear cells, 18 hours incubation, TNFα in supernatant by ELISA; read-out: TNF IC50. The procedure:
Venous blood is collected from healthy volunteers and the mononuclear cells purified by centrifugation through Histopaque (Ficoll) cushions. TNFα production from these cells is stimulated by addition of lipopolysaccharide. After 18 hours incubation in the presence of LPS, the cell supernatant is removed and the concentration of TNFα in the supernatant determined by ELISA.
In general terms: In an ELISA, binding on a coated surface is turned into a signal by an enzyme label.
One may read the IC50 as the midpoint of a concentration-inhibition curve. As to `CSC(C)(C)c1cc(NC(=O)NCc2ccccc2Sc2ccc3nnc(-c4ccccc4C(C)C)n3c2)n(-c2ccc(O)cc2)n1` [Example 142], the IC50 is 2.2 nM. Still for that read-out and setting: next, `CSCC(C)(C)c1cc(NC(=O)NCc2ccccc2Sc2ccc3nnc(-c4ccccc4O)n3c2)n(-c2cccc(OCCO)c2)n1` [Example 59]: 1.3 nM; `CC(C)c1ccccc1-c1nnc2ccc(Sc3ccccc3CNC(=O)Nc3cc(C(C)(C)C)nn3-c3ccc(O)cc3)cn12` [Example 144]: 1.2 nM; `CC(C)(C)c1cc(NC(=O)NCc2ccccc2Sc2ccc3nnc(-c4cc(O)ccc4Cl)n3c2)n(-c2ccc(F)c(F)c2)n1` [Example 78]: 0.8 nM.

On to `CCC(C)(C)c1cc(NC(=O)NCc2ccccc2Sc2ccc3nnc(-c4ccccc4O)n3c2)n(-c2cccnc2)n1` [Example 182], for which the IC50 was 0.7 nM. On the same count and under the same terms, next, `CC(C)c1nnc2ccc(Sc3ccccc3CNC(=O)Nc3cc(C(C)(C)C)nn3-c3ccc(O)c(Cl)c3)cn12` [Example 73]: 0.9 nM; `CC(C)(C)c1cc(NC(=O)NCc2ccccc2Sc2ccc3nnc(-c4ccccc4F)n3c2)n(-c2ccc(OCCO)cc2)n1` [Example 141]: 1.4 nM; `CSC(C)(C)c1cc(NC(=O)NCc2ccccc2Sc2ccc3nnc(C(C)C)n3c2)n(-c2cc(C)cc(C)c2)n1` [Example 136]: 1 nM. On the same count and under the same terms, next, `CC(C)(C)c1cc(NC(=O)NCc2ccccc2Sc2ccc3nnc(-c4ccccc4Cl)n3c2)n(-c2cccc(O)c2)n1` [Example 54]: 0.7 nM; `CSCC(C)(C)c1cc(NC(=O)NCc2ccccc2Sc2ccc3nnc(-c4ccccc4O)n3c2)n(-c2cccc(F)c2)n1` [Example 63]: 1.4 nM; `Cc1cc(O)cc(-n2nc(C(C)(C)C)cc2NC(=O)NCc2ccccc2Sc2ccc3nnc(C(C)C)n3c2)c1` [Example 57]: 1.2 nM. In the case of `CNC(=O)c1ccc(-n2nc(C(C)(C)C)cc2NC(=O)NCc2ccccc2Sc2ccc3nnc(C(C)C)n3c2)cc1` [Example 118], the 50% inhibitory concentration (IC50) worked out at 15.7 nM. Same read-out and setting: next, `COc1ccccc1-c1nnc2ccc(Sc3ccccc3CNC(=O)Nc3cc(C(C)(C)SC)nn3-c3ccc(O)cc3)cn12` [Example 140]: 1.8 nM.

The experiment is the same for the next values; noted with them: PBMC; LPS-stimulated human peripheral blood mononuclear cells, 18 hours incubation, TNFα in supernatant by ELISA; read-out: TNF IC50.
On to `COc1ccc(-n2nc(C(C)(C)C)cc2NC(=O)NCc2ccccc2Sc2ccc3nnc(C(C)C)n3c2)cc1Cl` [Example 33, N-[3-tert-Butyl-1-(3-chloro-4-methoxyphenyl)-1H-pyrazol-5-yl]-N′-{2-[(3-isopropyl[1,2,4]triazolo[4,3-a]pyridin-6-yl)thio]-benzyl}urea], for which the IC50 was 2 nM. The same measure, in the same setting: next, `CC(C)c1ccccc1-c1nnc2ccc(Sc3ccccc3CNC(=O)Nc3cc(C(C)(C)C)nn3-c3cccc(OCCO)c3)cn12` [Example 44, N-{3-tert-Butyl-1-[3-(2-hydroxyethoxy)phenyl]-1H-pyrazol-5-yl}-N′-(2-{[3-(2-isopropylphenyl)[1,2,4]triazolo[4,3-a]pyridin-6-yl]thio}benzyl)urea]: 1.1 nM. As to `CSC(C)(C)c1cc(NC(=O)NCc2ccccc2Sc2ccc3nnc(C(C)C)n3c2)n(-c2cccc(OCCO)c2)n1` [Example 37], the IC50 worked out at 2.8 nM. In the case of `CC(C)(C)c1cc(NC(=O)NCc2ccccc2Sc2ccc3nnc(-c4ccccc4O)n3c2)n(-c2ccccn2)n1` [Example 71, N-(3-tert-Butyl-1-pyridin-2-yl-1H-pyrazol-5-yl)-N′-(2-{[3-(2-hydroxyphenyl)[1,2,4]triazolo[4,3-a]pyridin-6-yl]thio}benzyl)urea], the IC50 turned out to be 3 nM. `CC(C)(C)c1cc(NC(=O)NCc2ccccc2Sc2ccc3nnc(-c4ccccc4O)n3c2)n(-c2cccnc2)n1` [Example 70, N-(3-tert-Butyl-1-pyridin-3-yl-1H-pyrazol-5-yl)-N′-(2-{[3-(2-hydroxyphenyl)[1,2,4]triazolo[4,3-a]pyridin-6-yl]thio}benzyl)urea]: the IC50 was found to be 0.9 nM. On the same count and under the same terms, next, `CSC(C)(C)c1cc(NC(=O)NCc2ccccc2Sc2ccc3nnc(-c4cc(Cl)ccc4O)n3c2)n(-c2ccc(C)cc2)n1` [Example 87, N-(2-{[3-(5-Chloro-2-hydroxyphenyl)[1,2,4]triazolo[4,3-a]pyridin-6-yl]thio}benzyl)-N′-[3-[1-methyl-1-(methylthio)ethyl]-1-(4-methylphenyl)-1H-pyrazol-5-yl]urea]: 0.6 nM. As for `CCc1ccccc1-c1nnc2ccc(Sc3ccccc3CNC(=O)Nc3cc(C(C)(C)C)nn3-c3cccc(OCCO)c3)cn12` [Example 104, N-{3-tert-Butyl-1-[3-(2-hydroxyethoxy)phenyl]-1H-pyrazol-5-yl}-N′-(2-{[3-(2-ethylphenyl)[1,2,4]triazolo[4,3-a]pyridin-6-yl]thio}benzyl)urea], the IC50 was determined as 1 nM.

For the compound `CCc1ccccc1-c1nnc2ccc(Sc3ccccc3CNC(=O)Nc3cc(C(C)(C)SC)nn3-c3cccc(OCCO)c3)cn12` [Example 102, N-(2-{[3-(2-Ethylphenyl)[1,2,4]triazolo[4,3-a]pyridin-6-yl]thio}benzyl)-N′-{1-[3-(2-hydroxyethoxy)phenyl]-3-[1-methyl-1-(methylthio)ethyl]-1H-pyrazol-5-yl}urea], the 50% inhibitory concentration (IC50) amounted to 1.7 nM. As for `CSC(C)(C)c1cc(NC(=O)NCc2ccccc2Sc2ccc3nnc(-c4ccccc4O)n3c2)n(-c2ccc(F)cc2)n1` [Example 94, N-{1-(4-Fluorophenyl)-3-[1-methyl-1-(methylthio)ethyl]-1H-pyrazol-5-yl}-N′-(2-{[3-(2-hydroxyphenyl)[1,2,4]triazolo[4,3-a]pyridin-6-yl]thio}benzyl)urea], the IC50 came to 0.9 nM. Consider `CSC(C)(C)c1cc(NC(=O)NCc2ccccc2Sc2ccc3nnc(C(C)C)n3c2)n(-c2cccc(O)c2)n1` [Example 26, N-{1-(3-Hydroxyphenyl)-3-[1-methyl-1-(methylthio)ethyl]-1H-pyrazol-5-yl}-N′-{2-[(3-isopropyl[1,2,4]triazolo[4,3-a]pyridin-6-yl)thio]benzyl}urea], for which the IC50 was 1.6 nM. In the case of `Cc1ccc(-n2nc(C(C)(C)C)cc2NC(=O)NCc2ccccc2Sc2ccc3nnc(-c4cccc(O)c4Cl)n3c2)cc1` [Example 36, N-[3-tert-Butyl-1-(4-methylphenyl)-1H-pyrazol-5-yl]-N′-(2-{[3-(2-chloro-3-hydroxyphenyl)[1,2,4]triazolo[4,3-a]pyridin-6-yl]thio}benzyl)urea], the IC50 came out at 4.8 nM.

With `CSC(C)(C)c1cc(NC(=O)NCc2ccccc2Sc2ccc3nnc(-c4ccccc4F)n3c2)n(-c2ccc(O)cc2)n1` [Example 109, N-(2-{[3-(2-Fluorophenyl)[1,2,4]triazolo[4,3-a]pyridin-6-yl]thio}benzyl)-N′-{1-(4-hydroxyphenyl)-3-[1-methyl-1-(methylthio)ethyl]-1H-pyrazol-5-yl}urea], the IC50 worked out at 1.2 nM. Still for that read-out and setting: next, `CC(C)c1nnc2ccc(Sc3ccccc3CNC(=O)Nc3cc(C(C)(C)C)nn3-c3cccnc3)cn12` [Example 34, N-(3-tert-Butyl-1-pyridin-3-yl-1H-pyrazol-5-yl)-N′-{2-[(3-isopropyl[1,2,4]triazolo[4,3-a]pyridin-6-yl)thio]benzyl}-urea]: 1.3 nM. Regarding `Cc1ccccc1-c1nnc2ccc(Sc3ccccc3CNC(=O)Nc3cc(C(C)(C)C)nn3-c3cccc(OCCO)c3)cn12` [Example 105, N-{3-tert-Butyl-1-[3-(2-hydroxyethoxy)phenyl]-1H-pyrazol-5-yl}-N′-(2-{[3-(2-methylphenyl)[1,2,4]triazolo[4,3-a]pyridin-6-yl]thio}benzyl)urea], the IC50 was 0.6 nM.
